One data set deals with HEK293T cells. The data set is described as follows: Scoring of cells with fluorescent aggregates by fluorescence microscopy. In kind it is cell-based, Human. The procedure: Human embryonic kidney cells (HEK293T) and Mel JuSo fibroblast cells where cultured in IMDM (GIBCO) supplemented with 10% FCS and penicillin/streptomycin/L-glutamine. The cells where transiently transfected with Fugene6 (Roche) and analyzed at indicated time-points after transfection. Mouse STHdh^+/+(Q7) cells (kindly provided by Marcy MacDonald) (Trettel et al, 2000) and N2A neuroblastoma cells were cultured in DMEM supplemented with 10% FCS and penicillin/streptomycin/L-glutamine. Neuronal cells where transiently transfected with Lipofectamine 2000 (Invitrogen). Mouse STHdh^+/+(Q7) cells were incubated at 32° C. For toxicity measurements, N2A cells were analyzed by FACS LSRII for GFP fluorescence 24 or 48 hours after transfection, and the percentage of GFP-positive cells was quantified.
HEK293T cells were transfected with indicated constructs and the percentages of aggregates were scored using an inverted fluorescence microscope (Leica DMR). For imaging, Mel Juso cells were transiently transfected with indicated constructs and images where obtained using a confocal microscope (Leica SP2) using a 63× objective. Note that some pictures show ‘over-exposed’ fluorescent aggregates in order to visualize non-sequestered, cytoplasmic staining. […]

Another data set concerns polyQ peptides (Q65). The data set is described as follows: SDS-soluble and SDS-insoluble fractions stained against polyQ. The following applies: co-expression with Q65 peptides; for amount of polyQ peptides in the SDS-insoluble fraction: FIG. 8A. In kind it is cell-based. The procedure: Cytosolic extracts were generated by lysing cells with 0.1% Triton X-100 for 30 minutes at 4° C., and supernatant was used after spinning down the lysate. 20 μg of cytosolic protein lysates were separated by 18% SDS-PAGE and transferred to Protan nitrocellulose membranes. Membranes were blocked in 5% dry milk in TBS containing 0.3% tween and probed with 1:1000 anti-GFP (Molecular Probes), 1:100 anti-Ub (SIGMA) or the anti-Polyglutamine 1C2 (MAB1574, Millipore). Polyclonal Horseradish Peroxidase (HRP) conjugated secondary antibodies, anti-rabbit (Sigma) or anti-mouse (DAKO) were used 1:10.000 to detect the primary antibodies via Lumi-lightPLUS westernblotting substrate (Roche). Preparation of SDS-soluble and SDS-insoluble protein fractions was described before (Carra et al., 2008). Briefly, cells were trypsinized, homogenized, and heated for 10 min at 99° C. in sample buffer (70 mM Tris pH 6.8, 1.5% SDS, 20% glycerol) supplemented with 50 mM DTT 72 hours after transfection. Cell lysates were centrifuged for at least 30 minutes at 14.000 rpm at room temperature. Supernatants were used as SDS-soluble fraction to which 0.05% bromophenol blue was added. Pellets represented SDS-insoluble fractions and were dissolved in 100% formic acid, incubated 30 minutes at 37° C., lyophilized overnight in a speed vac (Eppendorf), and resuspended in a ¼ of the volume of sample buffer containing 0.05% bromophenol blue. Samples were separated on either 18% SDS-PAGE (anti-polyQ), or 12.5% SDS-PAGE (anti-GFP) and further treated as Western blots.
Cytosolic extracts were generated by lysing cells with 0.1% Triton X-100 for 30 minutes at 4° C., and supernatant was used after spinning down the lysate. 20 μg of cytosolic protein lysates were separated by 18% SDS-PAGE and transferred to Protan nitrocellulose membranes. Membranes were blocked in 5% dry milk in TBS containing 0.3% tween and probed with anti-Polyglutamine 1C2 (MAB1574, Millipore). Preparation of SDS-soluble and SDS-insoluble protein fractions was described before (example 1 and Carra et al., 2008). […]

In data set [1] the test system is polyQ peptides derived from GFP-Ub-Q65. The data set is described as follows: Western blot against polyQ (1C2) of cells expressing GFP-Ub-Q65 with altered TPPII activity. Format: cell-based. To be noted: for polyQ peptide levels: cells expressing GFP-Ub-Q65, TPPII co-expressed or inhibited, FIG. 10 panel A. The procedure:
(§1) Cytosolic extracts were generated by lysing cells with 0.1% Triton X-100 for 30 minutes at 4° C., and supernatant was used after spinning down the lysate. 20 μg of cytosolic protein lysates were separated by 18% SDS-PAGE and transferred to Protan nitrocellulose membranes. Membranes were blocked in 5% dry milk in TBS containing 0.3% tween and probed with anti-Polyglutamine 1C2 (MAB1574, Millipore). Preparation of SDS-soluble and SDS-insoluble protein fractions was described before (example 1 and Carra et al., 2008). For peptidase inhibitory studies, transfected cells were treated for eight hours with different peptidase inhibitors before lysates were generated for Western blotting.
Large polyQ-peptides are preferably cleaved by endo-peptidases, as a few cleavages will result in smaller polyQ peptides below the disease-threshold that can be targeted by recycling amino-peptidases. To measure endo-peptidase activity against glutamines, we designed a probe containing 8 glutamines, flanked by a fluorophore (left) and a quencher (right). When the glutamines are cleaved, the quencher is released from the fluorophore, leading to fluorescence. Since the termini themselves are protected against exo-peptidases, only endo-peptidases can handle the peptide by cleaving the Q stretch. […] Since this experiment was performed with a small Q peptide, we next examined whether TPPII was able to prevent accumulation and aggregation of polyQ peptides derived from GFP-Ub-Q65. […] Some additional high molecular weight bands were present, representing oligomeric complexes. […] When testing two TPPII variants that have an altered conformation and lowered endo- peptidase activity, the levels of polyQ peptides (and resulting aggregates) increased again, showing that TPPII complex formation affects polyQ peptide degradation. […] This was achieved by either co-expressing TPPII or adding the specific inhibitor of TPPII, butabindide. […] Similarly, polyQ fragments generated by the proteasome upon degradation of polyQ expanded proteins were targeted by TPPII. […]
A general note: Immunoblotting shows a protein as a band on a membrane.

The test system of a further data set is polyQ peptides. The data set is described as follows: Peptidase inhibitor study in cells co-expressing DnaJB6, Western blot against polyQ. Format: cell-based. The following applies: inhibitor in combination with DnaJB6, treated for eight hours, FIG. 8B. The procedure:
as §1
To elucidate which clearance pathway led to the degradation of the polyQ peptides, several inhibitors were used in combination with DnaJB6 and DnaJB8. Cysteine proteases were inhibited by E-64, aspartyl proteases by pepstatin A, metalloproteases by bestatin, serine proteases by phenylmethylsulfonyl (PMSF), proteasomes were inhibited by MG-132 and macroautophagy was inhibited by 3-methyladenine (3-MA).

“DnaJB6: member of the Hsp40/DnaJ heat shock protein family, co-expressed chaperone”: in the data set on HEK293T cells, the “aggregation on co-expression with GFP-Ub-Q65” value is recorded as “considerable decrease in aggregation”. In addition, the “amount of polyQ peptides in the SDS-insoluble fraction” value in the data set on polyQ peptides (Q65) is “remarkably reduced”. Besides, the “polyQ peptides in the SDS-soluble fraction” value with polyQ peptides (Q65) (FIG. 8A and B) was “marked decrease”. For `CCCCNC(=O)[C@@H]1Cc2ccccc2N1C(=O)[C@@H](N)CC` [butabindide, reference compound], the polyQ peptide levels result in data set [1] is “accumulation of polyQ peptides”. In the case of `CC(C)C[C@H](NC(=O)[C@H]1O[C@@H]1C(=O)O)C(=O)NCCCCN=C(N)N` [E-64], in the data set with polyQ peptides, the “polyQ peptide levels despite DnaJB6” value is “re-appearance of polyQ peptides”.

In the case of `O=S(=O)(F)Cc1ccccc1` [PMSF, phenylmethylsulfonyl], the “polyQ peptide levels despite DnaJB6” value in the data set on polyQ peptides was “re-appearance of polyQ peptides”.

On to tripeptidyl peptidase II [TPPII], for which the polyQ peptide levels entry in data set [1] is “reduced polyQ levels”. For the same molecule, the “aggregated and low-molecular weight Q65 peptide levels” value in data set [1] (co-expression with GFP-Ub-Q65, immunoblot 1C2, FIG. 7) was “decrease in both aggregated and low-molecular weight Q65 peptides”.

B1: DnaJB8: member of the Hsp40/DnaJ heat shock protein family, co-expressed chaperone (protein, UniProt Q8NHS0 1-232, looked up)
DnaJ homolog subfamily B …: MANYYEVLGVQASASPEDIKKAYRKLALRWHPDKNPDNKEEAEKKFKLVSEAYEVLSDSKKRSLYDRAGCDSWRAGGGASTPYHSPFDTGYTFRNPEDIFREFFGGLDPFSFEFWDSPFNSDRGGRGHGLRGAFSAGFGEFPAFMEAFSSFNMLGCSGGSHTTFSSTSFGGSSSGSSGFKSVMSSTEMINGHKVTTKRIVENGQERVEVEEDGQLKSVTVNGKEQLKWMDSK
Turning to B1, the “aggregation on co-expression with GFP-Ub-Q65” value in the data set with HEK293T cells is “considerable decrease in aggregation”. The “amount of polyQ peptides in the SDS-insoluble fraction” value with polyQ peptides (Q65) was “remarkably reduced”.

For the origin of these results see patent US20120164128A1, “MEANS AND METHODS FOR COUNTERACTING POLYQ EXPANSION DISORDERS” (Academisch Medisch Centrum, priority 2009, published 2012).
